Several values for one entry are separate records, joined by “and”; a condition that tells them apart may be missing. Equal entries are not always repeated. Where two headings read alike, the source gives them in different places.
How the values were obtained:
[1] = format: in vivo, healthy volunteers; settings: for change in exposures: with any of the coadministered medications, apart from stated exceptions
[2] = coadministered with the 3D regimen; cited from earlier work
[3] = format: in vivo, healthy volunteers; settings: for Tmax: both, human, plasma, oral; for AUC from time zero to time t (AUCt) decrease: data not shown
[4] = tested on: CYP enzymes, OCT1/OCT2, MATE 1, glucuronidation; settings: cited from earlier work
[5] = Safety and tolerability assessments in the phase I studies; format: in vivo, healthy subjects; settings: carisoprodol arm
[6] = coadministration with ritonavir; cited from earlier work
[7] = alone and with the 3D regimen (not affected / similar)
[8] = in the presence of the 3D regimen
[9] = upon coadministration with the 3D regimen
[10] = coadministration with the 3D regimen

For `COC(=O)N[C@H](C(=O)N1CCC[C@H]1C(=O)Nc1ccc([C@@H]2CC[C@@H](c3ccc(NC(=O)[C@@H]4CCCN4C(=O)[C@@H](NC(=O)OC)C(C)C)cc3)N2c2ccc(C(C)(C)C)cc2)cc1)C(C)C` [Ombitasvir], the “change in (other) exposure parameters” value ([1]; in the presence of SMZ/TMP) was under 20% and the change in exposures [1] was at most 25%.

For `COc1ccc2[nH]c([S+]([O-])Cc3ncc(C)c(OC)c3C)nc2c1` (stereo not shown) [omeprazole], the exposures decrease [2] is given as ~ 40%.

Work on `CN(C)CCC=C1c2ccccc2C=Cc2ccccc21` [Cyclobenzaprine] yielded a median tmax [3, 7] of 5.0 h, a Cmax decrease [3, 8] of 32% and an AUC decrease [3, 8] of 40%. The exposures decrease [3, 9] was “up to 46%”, the exposures decrease ([3]; upon coadministration with the 3D regimen, listed as cyclobenzaprine) was at most 40% and the Metabolic pathway [4] was “CYP3A4, 1A2, and 2D6 substrate”.

In the case of `COc1ccc2c3c1O[C@H]1C(=O)CC[C@H]4[C@@H](C2)N(C)CC[C@]314` [Hydrocodone], the Tmax [3] is reported as 2 h, the AUC increase [3, 8] is reported as 90% and the Cmax increase [3, 8] is reported as 27%.

In the case of `O=C1CN=C(c2ccccc2)c2cc(Cl)ccc2N1` [Nordiazepam], the Tmax [3] is reported as 48 h, the Tmax ([3]; 2 mg) is reported as 96 h and the Cmax increase [3, 8] is reported as 10% and < 20%. The “proportion of AUC extrapolated after the last measurable timepoint” value (“proportion of AUC extrapolated” for short) ([3]; with the 3D regimen) was 20%, the “AUC from time zero to time t (AUCt) decrease” value ([3]; with the 3D regimen) was 3% and the “proportion of AUC extrapolated” value ([3]; without the 3D regimen) was 46%.

With `CC(C)c1nc(CN(C)C(=O)N[C@H](C(=O)N[C@@H](Cc2ccccc2)C[C@H](O)[C@H](Cc2ccccc2)NC(=O)OCc2cncs2)C(C)C)cs1` [Ritonavir] the “change in (other) exposure parameters” value ([1]; in the presence of SMZ/TMP) was under 20% and the change in exposures [1] was at most 25%.

With `CNCCC=C1c2ccccc2C=Cc2ccccc21` [Norcyclobenzaprine] the “harmonic mean t½” value [3, 10] was 53 h, the median tmax [3, 10] was 24 h and the “Cmax change (increase or decrease)” value [3, 8] was under 20%. For the same compound, the AUC decrease [3, 8] was 26%, the “harmonic mean t½” value ([3]; medication alone) was 86 h and the median tmax ([3]; medication alone) was 36 h. For the same compound, the “proportion of AUC extrapolated” value ([3]; with the 3D regimen) was 21%, the “AUC from time zero to time t (AUCt) decrease” value ([3]; with the 3D regimen) was 7% and the “proportion of AUC extrapolated” value ([3]; without the 3D regimen) was 42%.

For `CC(=O)Nc1ccc(O)cc1` [Acetaminophen], the Metabolic pathway [4] is given as “Glucuronidation”.

With `CN(C)C(=N)N=C(N)N` [Metformin] the median tmax [3, 7] was 4.0 h, the Cmax decrease [3, 8] was 23% and the AUC decrease [3, 8] was < 20% and 10%. The Metabolic pathway [4] was “OCT1/OCT2 substrate”.

Compound `CCCC(C)(COC(N)=O)COC(=O)NC(C)C` (stereo not shown) [Carisoprodol] has a Tmax [3] of 2 h, a Cmax decrease [3, 8] of 46% and an exposures decrease [3, 9] of at most 46%. For the same compound, the subjects reporting somnolence [5] was “five”.

Work on `COc1c(-c2ccc3cc(NS(C)(=O)=O)ccc3c2)cc(-n2ccc(=O)[nH]c2=O)cc1C(C)(C)CO` [dasabuvir M1] yielded an exposures decrease ([1]; in the presence of SMZ/TMP, data not shown) of at most 19%.

With `COc1c(-c2ccc3cc(NS(C)(=O)=O)ccc3c2)cc(-n2ccc(=O)[nH]c2=O)cc1C(C)(C)C` [Dasabuvir] the AUC increase ([1]; in the presence of SMZ/TMP) was 33%, the “change in (other) exposure parameters” value ([1]; in the presence of SMZ/TMP) was under 20% and the exposures increase ([1]; in the presence of SMZ/TMP) was at most 33%. It also gave a change in exposures [1] of at most 25%.

For `CCCC(C)(COC(N)=O)COC(N)=O` [Meprobamate], the Tmax [3] was 3 to 4 h, the “AUC change (increase or decrease)” value [3, 8] was under 20% and the “Cmax change (increase or decrease)” value [3, 8] was under 20%.

In the case of `Cc1cnc(C(=O)N[C@H]2CCCCC/C=C\[C@@H]3C[C@@]3(C(=O)NS(=O)(=O)C3CC3)NC(=O)[C@@H]3C[C@@H](Oc4nc5ccccc5c5ccccc45)CN3C2=O)cn1` [Paritaprevir], the Tmax ([1]; both, human, plasma, oral, median tmax, in the presence of metformin) is reported as 5.5 h, the Cmax decrease ([1]; in the presence of SMZ/TMP) is reported as 22% and the “change in (other) exposure parameters” value ([1]; in the presence of SMZ/TMP) is reported as under 20%. For the same compound, the change in exposures [1] was at most 25%, the Cmax decrease ([1]; with metformin) was 37% and the Ctrough increase ([1]; with metformin) was 22%.

In the case of `COc1cc(Cc2cnc(N)nc2N)cc(OC)c1OC` [Trimethoprim], the AUC increase [3, 8] is reported as 22%, the Ctrough increase [3, 8] is reported as 25% and the “changes in exposures (Cmax and AUC geometric mean ratios)” value [3, 9] is reported as at most 25%. For the same compound, the exposures increase [3, 9] was at most 20%, the Metabolic pathway [4] was “Weak to moderate CYP2C8 inhibitor; weak OCT2 inhibitor; MATE 1 inhibitor” and the “increase in AUC” value [6] was 20%.

— PMC4933729 (Clinical Pharmacokinetics, 2016)
